Experimental findings from patent US20260206761A1, “HETEROARYL-TRIAZOLE COMPOUNDS AS PESTICIDES” (Bayer Aktiengesellschaft, priority 2019, published 2026) are described below.

Common to all, as to format: in vivo
The test system of assay [1] is larvae of the banded cucumber beetle (Diabrotica balteata). The experiment in a line: Diabrotica balteata spray test. The note with it: 168 h, after 7 days, read-out: activity (efficacy: seedlings grown). A digest of the protocol: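 Read-out is % efficacy at day 7, 0% meaning no seedling growth and 100% growth equal to uninfested untreated controls. Test solutions (acetone/DMF concentrate diluted with water carrying 1000 ppm emulsifier) were sprayed onto 1-day-germinated wheat seeds, 5 per well, before infestation with 10-20 larvae.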

The test system of assay [2] is adult unfed cat fleas (Ctenocephalides felis). The experiment in a line: Ctenocephalides felis oral test. Conditions: 48 h, read-out: activity (mortality). A digest of the protocol:
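About 20 adult unfed fleas fed through parafilm on cattle blood containing compound (DMSO stock diluted in blood), blood held at 37 °C and fleas at room temperature. Mortality (%) scored after 2 days.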

Assay [3] has as its system Anopheles funestus strain FUMOZ-R. The assay is described as follows: Anopheles funestus test (ANPHFU surface treatment & contact assay). The note with it: 24 hours after contact, read-out: efficacy (mortality); for mortality at 4 mg/m2: surface concentration 4 mg/m^2, exposure 30 minutes; for mortality at 20 mg/m2: surface concentration 20 mg/m^2, exposure 30 minutes. The method, then: Anopheles funestus Test (ANPHFU Surface Treatment & Contact Assay)
(§1) Solvent: Aceton+2000 ppm rapeseed oil methyl ester (RME)
In order to produce a sufficient, active ingredient containing solution it is necessary to solve the test compound in the solvent-mix (acetone at 2 mg/ml/RME 2000 ppm). This solution is pipetted onto a glazed tile and after evaporation of the acetone, adult mosquitoes of the species Anopheles funestus strain FUMOZ-R (Hunt et al., Med. Vet. Entomol. 2005 September; 19(3): 271-275) are placed onto the dried surface. The exposure time is 30 minutes. Mortality in percent (%) is determined 24 hours after contact of the insects to the treated surface. 100% mortality means that all tested insects are dead, whereas 0% means that no insect died.

In assay [4] the test system is adult cat fleas (Ctenocephalides felis). The assay is described as follows: Ctenocephalides felis in-vitro contact test, adult cat flea. The note with it: application rate 5 μg/cm^2 (=500 g/ha), after 48 hours, read-out: activity (efficacy: fleas dead or moribund). A digest of the protocol: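 Efficacy, as % of fleas dead or moribund, was read 48 h after 5-10 adult cat fleas were confined in glass tubes whose walls carried dried compound film (900 ppm, […]). Fleas failing to escape upward from a 45-50° C plate within 5 min counted as dead or moribund.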

The subject of assay [5] is adult engorged female ticks (Rhipicephalus microplus). The experiment in a line: Rhipicephalus (Boophilus) microplus injection test. Conditions: 168 h, egg deposition after 7 days, read-out: activity (efficacy: infertile eggs); for pest or weed control at 4 pg: application rate 4 pg/animal. In outline: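 Compound in DMSO (10 mg per 0.5 mL, then diluted with DMSO to test concentration); 1 μL injected into the abdomen of each of five engorged females, then held in a climate chamber. Fertile egg deposition checked at 7 days; efficacy 100% = all eggs infertile, 0% = all fertile.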

The subject of assay [6] is Blattella germanica strain PAULINIA
The experiment in a line: whole plant or invertebrate. Conditions: read-out: efficacy (mortality). The method, then: Blattella germanica Test (BLTTGE Surface Treatment & Contact Assay)
as §1
In order to produce a sufficient, active ingredient containing solution it is necessary to solve the test compound in the solvent-mix (acetone at 2 mg/ml/RME 2000 ppm). This solution is pipetted onto a glazed tile and after evaporation of the acetone, adult animals of the species Blattella germanica strain PAULINIA are placed onto the dried surface. The exposure time is 30 minutes.
Mortality in percent (%) is determined 24 hours after contact of the insects to the treated surface. 100% mortality means that all tested insects are dead, whereas 0% means that no insect died.

Assay [7] concerns Aedes aegypti strain MONHEIM. The experiment in a line: Aedes aegypti test (AEDSAE surface treatment & contact assay). The note with it: 24 hours after contact, read-out: efficacy (mortality); for mortality at 4 mg/m2: surface concentration 4 mg/m^2, exposure 30 minutes; for mortality at 20 mg/m2: surface concentration 20 mg/m^2, exposure 30 minutes. In outline:
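Percent mortality was read 24 h after adult MONHEIM mosquitoes were held for 30 min on a tile treated with compound. Compound applied from acetone solution (2 mg/ml) containing 2000 ppm rapeseed oil methyl ester, after evaporation.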

Assay [8] concerns larvae of the southern green stink bug (Nezara viridula). The assay is described as follows: Nezara viridula spray test. Conditions: 96 h, application rate 100 g/ha, after 4 days. A digest of the protocol:
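Larva-infested barley (Hordeum vulgare) plants received a spray of test solution prepared from an acetone/DMF concentrate diluted in emulsifier-containing water (1000 ppm). Percent kill read 4 days later; 0% means no stink bugs dead.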

The test system of assay [9] is green peach aphid (Myzus persicae). The experiment in a line: Myzus persicae oral test. Conditions: 120 h, application rate 4 ppm, after 5 days. In outline: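 Five-day oral feeding assay measuring percent mortality of a mixed aphid population that draws compound-containing sugared IPL41 medium through sealing parafilm; the test preparation derives from 1 part compound per 100 parts acetone, diluted with water.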

In assay [10] the test system is adult brown dog ticks (Rhipicephalus sanguineus). The experiment in a line: Rhipicephalus sanguineus in-vitro contact test, adult brown dog ticks. The note with it: after 48 hours, read-out: activity (efficacy: ticks dead or moribund). In outline: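 Glass tubes are coated with compound dissolved in acetone, a 900 ppm solution yielding 5 μg/cm^2 on the inner surface. Adult ticks (5-10 per tube) are kept on the dry film at room temperature for 48 h, then those unable to escape 45-50° C heat are counted as dead or moribund.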

In assay [11] the test system is green peach aphid (Myzus persicae). The assay is described as follows: Myzus persicae spray test. Conditions: 120 h, application rate 500 g/ha, after 5 days. A digest of the protocol: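 Chinese cabbage leaf disks carrying all instars of M. persicae sprayed with compound in acetone/DMF, diluted in water with 1000 ppm alkylarylpolyglycol ether emulsifier. Percent mortality scored after 5 days (100% = all aphids killed).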

The test system of assay [12] is Culex quinquefasciatus strain P00. The experiment in a line: Culex quinquefasciatus test (CULXFA surface treatment & contact assay). The note with it: 24 hours after contact, read-out: efficacy (mortality). How it is done:
Culex quinquefasciatus Test (CULXFA Surface Treatment & Contact Assay)
as §1
In order to produce a sufficient, active ingredient containing solution it is necessary to solve the test compound in the solvent-mix (acetone at 2 mg/ml/RME 2 000 ppm). This solution is pipetted onto a glazed tile and after evaporation of the acetone, adult mosquitoes of the species Culex quinquefasciatus strain P00 are placed onto the dried surface. The exposure time is 30 minutes. Mortality in percent (%) is determined 24 hours after contact of the insects to the treated surface. 100% mortality means that all tested insects are dead, whereas 0% means that no insect died.

Assay [13] relates to two spotted spidermite (Tetranychus urticae). The assay is described as follows: Tetranychus urticae spray test OP-resistant. The note with it: 144 h, application rate 500 g/ha, after 6 days. The method, then:
Tetranychus urticae—Spray Test OP-Resistant
Solvent: 78.0 parts by weight acetone • 1.5 parts by weight dimethylformamide
Emulsifier: alkylarylpolyglycol ether
To produce a suitable preparation of active compound, 1 part by weight of active compound is mixed with the stated amount of solvents and is diluted with water, containing an emulsifier concentration of 1000 ppm, to the desired concentration. Further test concentrations are prepared by dilution with emulsifier containing water.
French bean (Phaseolus vulgaris) leaf disks infected with all instars of the two spotted spidermite (Tetranychus urticae), are sprayed with a preparation of the active ingredient of the desired concentration.
After 6 days mortality in % is determined. 100% means all spider mites have been killed and 0% means none of the spider mites have been killed.

Consider `CC(NC(=O)c1cc(Cl)cc(S(C)(=O)=O)c1)c1nc(Br)nn1-c1ncccn1` (stereo not shown) [I-34], for which the pest or weed control at 100 g/ha in assay [1] (application rate 100 g/ha (=32 pg/well)) stood at 100%. Moreover, the mortality at 100 ppm in assay [2] turned out to be 100%. Besides, the mortality at 4 mg/m2 in [3] and in assay [7] was 80 to 100% throughout. Also, the mortality at 20 mg/m2 in [3], in [6] and in [7] was 80 to 100% each time. The pest or weed control at 5 µg/cm2 in [4] stood at 90%. Besides, the pest or weed control at 4 pg in [5] is 100%. This compound gave a mortality at 100 g/ha in assay [8] of 100%. This compound also had a mortality at 4 ppm in assay [9] of 100%.

As for `Cc1nc([C@H](C)NC(=O)c2csc(Cl)c2)n(-c2ncccn2)n1` [II-24], the pest or weed control at 500 g/ha in [1] (application rate 500 g/ha (=160 pg/well)) worked out at 80%. In addition, in [10] (application rate 1 pg/cm^2 (=100 g/ha)), the pest or weed control at 100 g/ha came to 100%. Also, the pest or weed control at 5 µg/cm2, 500 g/ha in assay [10] (application rate 5 μg/cm^2 (=500 g/ha)) amounted to 100%. Also, the mortality at 4 mg/m2 is 80 to 100% in [3]; 80 to 100% in [7]; 80 to 100% in assay [12] (surface concentration 4 mg/m^2, exposure 30 minutes). For the same compound, the mortality at 20 mg/m2 in assay [3] is 80 to 100%; in assay [7], 80 to 100%; in assay [12] (surface concentration 20 mg/m^2, exposure 30 minutes) it was 80 to 100%. In addition, in assay [4], the pest or weed control at 5 µg/cm2 was found to be 100%. Moreover, in assay [5], the pest or weed control at 4 pg was 100%. For the same compound, the pest or weed control at 0.02 mg in assay [5] (application rate 20 μg/animal) was determined as 100%. The mortality at 500 g/ha in [11] and in assay [13] was 90% throughout.

One may read the mortality as the percentage killed.
